{
  "source": "patent EP0490193A1",
  "about": "“Complex of an actif enantiomer of ibuprofen with cyclodextrin” (priority 1990, dated 1992)",
  "key": {"[1]": {"experiment": "Dissolution properties in water at 37° C (Tabelle I)", "format": "physicochemical", "details": "Wasser"}, "[2]": {"experiment": "In vitro diffusion study, concentration in the receptor cell, buffer pH 1,2, 37° C (Tabelle II)", "format": "in vitro ADME", "details": "Pufferlösung pH = 1,2, 37° C", "source_text": "Um die gute biologische Verfügbarkeit des S-(+)-Ibuprofens aus der komplexierten Form zu testen, wurden in vitro-Diffusionsversuche durchgeführt. Die Diffusion des S-(+)-Ibuprofens aus dem β-Cyclodextrin-Komplex war schneller, die S-(+)-Ibuprofen-Menge in der Rezeptorzelle betrug das 1,6fache bei pH = 1,2 nach 6 Stunden im Vergleich zum freien Arzneimittel (Tabelle II)."}, "[3]": {"details": "synoviale Flüssigkeit, Patienten mit Arthritis; cited from earlier work"}, "[4]": {"details": "Ratten; cited from earlier work"}, "[5]": {"details": "nach Ibuprofengaben; cited from earlier work"}},
  "data": [
    {"smiles": "CC(C)Cc1ccc([C@H](C)C(=O)O)cc1", "note": "[S-(+)-Ibuprofen, S-(+)-2-(-4-Isobutylphenyl)propionsäure]", "values": [
      {"measurement": "gelöstes Ibuprofen", "setting": "[1]; Zeit 1 min", "result": "0,04 mg/ml"},
      {"measurement": "gelöstes Ibuprofen", "setting": "[1]; Zeit 5 min", "result": "0,10 mg/ml"},
      {"measurement": "gelöstes Ibuprofen", "setting": "[1]; Zeit 10 min", "result": "0,12 mg/ml"},
      {"measurement": "gelöstes Ibuprofen", "setting": "[1]; Zeit 15 min", "result": "0,13 mg/ml"},
      {"measurement": "gelöstes Ibuprofen", "setting": "[1]; Zeit 30 min", "result": "0,12 mg/ml"},
      {"measurement": "gelöstes Ibuprofen", "setting": "[1]; Zeit 60 min", "result": "0,12 mg/ml"},
      {"measurement": "Konzentration von S-(+)-Ibuprofen in der Rezeptorzelle", "setting": "[2]; Zeit 90 min", "result": "0,022 mg/ml"},
      {"measurement": "Konzentration von S-(+)-Ibuprofen in der Rezeptorzelle", "setting": "[2]; Zeit 120 min", "result": "0,027 mg/ml"},
      {"measurement": "Konzentration von S-(+)-Ibuprofen in der Rezeptorzelle", "setting": "[2]; Zeit 180 min", "result": "0,038 mg/ml"},
      {"measurement": "Konzentration von S-(+)-Ibuprofen in der Rezeptorzelle", "setting": "[2]; Zeit 240 min", "result": "0,047 mg/ml"},
      {"measurement": "Konzentration von S-(+)-Ibuprofen in der Rezeptorzelle", "setting": "[2]; Zeit 360 min", "result": "0,061 mg/ml"},
      {"measurement": "Konzentrationsverhältnis S zu R", "setting": "[3]", "result": "2,1"}
    ]},
    {"smiles": "CC(C)Cc1ccc(C(C)C(=O)O)cc1", "note": "(racemic) [Ibuprofen]", "values": [
      {"measurement": "Absorptionsgrad", "setting": "[4]", "result": "gleich"},
      {"measurement": "aus dem Urin zurückgewonnen", "setting": "[5]", "result": "5,0%"}
    ]}
  ]
}
